One assay concerns the target T1, MAT2A (Homo sapiens, UniProt P31153).
T1 construct: purchased BPS Bioscience (USA) 71401
Kind of assay: MAT2A inhibitory activity, colorimetric phosphate detection (PiColorLock) enzyme assay. Conditions: Test Condition 1 or 2 (not stated which per compound); absorbance at 630 nm. It counts as biochemical. As for the experimental part: In vitro assay: Methionine and adenosine triphosphate (ATP) are converted into S-adenosylmethionine (SAM) and inorganic phosphate (pi) via the catalytic action of methionine adenosyltransferase 2A (MAT2A). The produced pi is detected by the PiColorLock™ Phosphate Detection Reagent, which is a colorimetric assay, and the activity of MAT2A can be evaluated according to the amount of pi generated during the enzyme reaction. Each compound was evaluated under Test Condition 1 or 2 as described below.
• Concentration of MAT2A inhibitor: maximum concentration of 50 µM, 5-fold dilution (7 groups in total) • MAT2A concentration: 12 ng/µL • ATP and Met concentration: 100 µM, 80 µM
• Concentration of MAT2A inhibitor: maximum concentration of 1 µM, 3-fold dilution (7 groups in total) • MAT2A concentration: 4 ng/µL • ATP and Met concentration: 300 µM, 150 µM • Reagents: Methionine (catalog number M5308) and ATP (catalog number A2383) were purchased from Sigma-Aldrich (USA). MAT2A (catalog number 71401) was purchased from BPS Bioscience (USA), and PiColorLock™ Phosphate Detection Reagent (catalog number 303-0030) was purchased from Novus (USA).
Assay buffer composition: 50 mM Tris-HCl pH 8.0, 50 mM KCI, 15 mM MgCl2, 0.3 mM EDTA, 0.005 % (w/v) BSA
Experimental procedure: Each compound was diluted 5-fold or 3-fold based on the maximum concentration (5 mM or 1 mM or 0.1 mM) using DMSO. The diluted compounds were diluted 20-fold using assay buffer, and then mixed at a volume ratio of 1:2 with MAT2A (30 ng/µL or 10 ng/µL) diluted with assay buffer and treated for 30 minutes at room temperature. The negative control group is a group untreated with both the MAT2A enzyme and the compound according to an embodiment of the present application, and the positive control group is a group treated only with the MAT2A enzyme and untreated with the compound according to an embodiment of the present application.
In each well of a 384-well plate, 30 µL of the mixed solution and 20 µL of a 1:1 mixed solution of ATP (0.5 mM or 1.5 mM) and Met (0.4 mM or 0.75 mM) were mixed and then treated for 1 hour at room temperature. After the enzyme reaction, 13 µL of a 100:1 mixed solution of PiColorLockTM and Accelerator was treated in each well and reacted for 5 minutes at room temperature. After treating 5 µL of Stabilizer in each well and reacting for 25 minutes at room temperature, the absorbance at 630 nm was measured using SpectraMax M4 (Molecular Devices, USA) to calculate the IC50 value of the compound.
Analysis method: The enzyme activity (%) of each experimental group was calculated as {(average O.D. of compound-treated group - average O.D. of negative control group)/(average O.D. of positive control group - average O.D. of negative control group)} * 100. After preparing a dose-response curve (4-parameter) using the enzyme activity according to the treatment concentration of each compound in GraphPad Prism 9, the 50 % of enzyme inhibitory activity value (IC50) was calculated through non-linear regression analysis. The IC50 results measured for the MAT2A activity inhibitory ability of the compounds according to an embodiment of the present application are shown in Table 2 (+++: more than 1 to 100 nM, ++: more than 100 to 1,000 nM, +: more than 1,000 to 10,000 nM, -: more than 10,000 nM).

Assay [1] has as its system HCT116 (MTAP del) cell line. Kind of assay: Cell proliferation inhibition in MTAP-deficient cancer cells, WST-1 assay. Type of assay: cell-based. Conditions: Homo sapiens, maximum concentration 10 µM, read-out: HCT116 MTAP^-/- (IC50, cell proliferation inhibited by 50%). As for the experimental part:
(§1) The HCT116 (MTAP del) cell line, which is a colorectal cancer cell line with deletion of MTAP gene, was treated with a compound according to an embodiment of the present application as a MAT2A inhibitor, and after culturing for 120 hours, the change in the number of cells was measured with a WST-1 assay reagent. The WST-1 assay is an assay that measures the number of cells by measuring the generation of a chromogenic substance called formazan from tetrazolium salts by intracellular mitochondrial dehydrogenase. In addition, as a control group, a wild-type colorectal cancer HCT116 (MTAP WT) cell line containing the MTAP gene was used to perform the experiment in the same manner as the experimental group.
(§2) Cell lines and reagents: HCT116 (MTAP WT (catalog number HD PAR-034), MTAP del (catalog number HD R02-033)) cell lines were purchased from Horizon Discovery (USA), and RPMI1640 medium (catalog number 22400-093), FBS (Fetal Bovine serum, catalog number 16000044), and Penicillin/Streptomycin (catalog number 15140-122) were purchased from GIBCO (USA). WST-1 (catalog number EZ-BULK150) was purchased from Dogen (Korea).
(§3) Experimental procedure: HCT116 (MTAP WT, MTAP del) cell lines were dispensed into a 96-well plate at a concentration of 1,000 cells/well in RPMI1640 culture medium containing 10% FBS and 1% Penicillin/Streptomycin, and allowed to attach for 24 hours. When the cells were attached to the plate, the drug was diluted 4-fold from a maximum concentration of 10 µM and treated on the cells. After 120 hours of drug treatment, 20 µL of WST-1 solution was treated for 2 hours, and absorbance at 450 nm was measured using SpectraMax M4 (Molecular Devices). Data analysis was calculated by taking the DMSO control group value as 100%. For the IC50 value, the concentration at which cell proliferation is inhibited by 50% was calculated through interpolation using a 4-parameter fit of the dose-response curve using the GraphPad Prism 8.4.3 program. The cancer cell proliferation inhibitory ability and selectivity in MTAP-deficient cancer cells of the compounds according to an embodiment of the present application are described in Table 3 (+++: 1 to 100 nM, ++: more than 100 to 1,000 nM, +: more than 1 to 10 µM, -: more than 10 µM).
(In general: Tetrazolium assays rely on reduction of a dye to a coloured formazan, in cell work by metabolically active cells.)

The subject of assay [2] is HCT116 (MTAP WT) cell line. Kind of assay: Cell proliferation inhibition in wild-type control cells, WST-1 assay. Type of assay: cell-based. Conditions: maximum concentration 10 µM, read-out: HCT116 WT (IC50, cell proliferation inhibited by 50%). The method, then: as §1, §2, §3
Setting [3] is: HCT-116, 120 hours of drug treatment.
The mark [4] stands for this setting: Homo sapiens, HCT-116, 120 hours of drug treatment.
The mark [5] stands for this setting: HCT-116, 120 h, 120 hours of drug treatment.

Data on 18 compounds can be found in patent publication EP4759814A1, “TRICYCLIC COMPOUND AND USE THEREOF AS MAT2A INHIBITOR” (SK Biopharmaceuticals Co., Ltd., priority 2023, dated 2025).

The structures appear in SMILES notation. Read-outs that look alike come from different tables or passages of the source.

T1 sequence (P31153 whole entry): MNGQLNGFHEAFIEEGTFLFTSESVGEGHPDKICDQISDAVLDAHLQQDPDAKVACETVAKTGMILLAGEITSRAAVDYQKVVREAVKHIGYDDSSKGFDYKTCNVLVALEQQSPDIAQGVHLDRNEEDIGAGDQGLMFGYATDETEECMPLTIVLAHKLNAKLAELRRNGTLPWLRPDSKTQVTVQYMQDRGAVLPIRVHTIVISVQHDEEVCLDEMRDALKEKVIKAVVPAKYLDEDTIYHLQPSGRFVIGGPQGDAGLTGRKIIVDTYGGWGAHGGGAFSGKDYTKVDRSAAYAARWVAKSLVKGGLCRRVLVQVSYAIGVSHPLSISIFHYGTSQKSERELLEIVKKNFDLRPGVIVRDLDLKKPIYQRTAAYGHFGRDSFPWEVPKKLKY

With `Cc1ncccc1-n1c(=O)c2nccn2c2c(F)cc(Cl)cc21` [Example 101, 7-chloro-9-fluoro-5-(2-methylpyridin-3-yl)imidazo[1,2-a]quinoxalin-4(5H)-one], the figures for the IC50 (against MAT2A; in assay [1] (setting [3]); in assay [2] (setting [4])) were 1 to 100 nM, 1 to 100 nM and > 10000 nM, respectively.
For the compound `Cc1ccccc1-n1c(=O)c2nccn2c2ccc(C#N)cc21` [Example 18, 4-oxo-5-(o-tolyl)-4,5-dihydroimidazo[1,2-a]quinoxalin-7-carbonitrile], the results for the IC50 (against MAT2A; in assay [1] (setting [3]); in assay [2] (setting [4])) were 1000 to 10000 nM, 1000 to 10000 nM and > 10000 nM, respectively.
For the compound `Cc1cc2c(cc1C(F)(F)F)n(-c1cccnc1C)c(=O)c1nccn12` (atropisomer, axis not shown; (Sa)) [Example 95, (Sa)-8-methyl-5-(2-methylpyridin-3-yl)-7-(trifluoromethyl)imidazo[1,2-a]quinoxalin-4(5H)-one], the IC50 in assay [1] (setting [5]) was 1 to 100 nM; in assay [2] (120 hours of drug treatment), > 10000 nM.
On to `Cc1cn2c(n1)c(=O)n(-c1cccnc1C)c1cc(Cl)ccc12` [Example 45, 7-chloro-2-methyl-5-(2-methylpyridin-3-yl)imidazo[1,2-a]quinoxalin-4(5H)-one], for which the values for the IC50 (at MAT2A; in assay [1] (setting [3]); in assay [2] (setting [4])) were 1 to 100 nM, 1 to 100 nM and 100 to 1000 nM, respectively.
For the compound `Cc1ncccc1-n1c(=O)c2ncc(C)n2c2ccc(Cl)cc21` [Example 34, 7-chloro-1-methyl-5-(2-methylpyridin-3-yl)imidazo[1,2-a]quinoxalin-4(5H)-one], the figures for the IC50 (against MAT2A; in assay [1] (setting [3]); in assay [2] (setting [4])) were 1 to 100 nM, 1 to 100 nM and 100 to 1000 nM, respectively.
For the compound `COc1ccc2c(c1)n(-c1cccc(F)c1C)c(=O)c1nccn12` [Example 14, 5-(3-fluoro-2-methylphenyl)-7-methoxyimidazo[1,2-a]quinoxalin-4(5H)-one], the IC50 at MAT2A is 100 to 1000 nM; in assay [1] (setting [3]), 100 to 1000 nM; in assay [2] (setting [4]), > 10000 nM.
In the case of `O=c1c2nccn2c2ccc(C(F)(F)F)cc2n1-c1cccc2c1CCO2` [Example 65, 5-(2,3-dihydrobenzofuran-4-yl)-7-(trifluoromethyl)imidazo[1,2-a]quinoxalin-4(5H)-one], the results for the IC50 (at MAT2A; in assay [1] (setting [3]); in assay [2] (setting [4])) were 1 to 100 nM, 1 to 100 nM and 1000 to 10000 nM, respectively.
Regarding `O=c1c2nccn2c2ccc(Cl)cc2n1-c1cccc(F)c1` [Example 40, 7-chloro-5-(3-fluorophenyl)imidazo[1,2-a]quinoxalin-4(5H)-one], the IC50 was 100 to 1000 nM against MAT2A, 100 to 1000 nM in assay [1] (setting [3]) and > 10000 nM in assay [2] (setting [4]).
Consider `CCc1ncccc1-n1c(=O)c2nccn2c2cc(Cl)c(C(F)(F)F)cc21` [Example 110, 8-chloro-5-(2-ethylpyridin-3-yl)-7-(trifluoromethyl)imidazo[1,2-a]quinoxalin-4(5H)-one], for which the IC50 against MAT2A was 1 to 100 nM; in assay [1] (setting [3]) it was > 10000 nM; in assay [2] (setting [4]) it was > 10000 nM.
As to `COc1cc2c(cc1Br)n(-c1ccccc1C)c(=O)c1nccn12` [Example 74, 7-bromo-8-methoxy-5-(o-tolyl)imidazo[1,2-a]quinoxalin-4(5H)-one], the IC50 is 100 to 1000 nM at MAT2A, 100 to 1000 nM in assay [1] (setting [3]) and > 10000 nM in assay [2] (setting [4]).
With `Cc1ncccc1-n1c(=O)c2ncc(C)n2c2ccc(C(F)(F)F)cc21` [Example 58, 1-methyl-5-(2-methylpyridin-3-yl)-7-(trifluoromethyl)imidazo[1,2-a]quinoxalin-4(5H)-one], the IC50 fell in the range of 100 to 1000 nM against MAT2A, 1 to 100 nM in assay [1] (setting [3]) and 100 to 1000 nM in assay [2] (setting [4]).
`Cc1ccccc1-n1c(=O)c2nccn2c2ccc(OCC(F)(F)F)cc21` [Example 28, 5-(o-tolyl)-7-(2,2,2-trifluoroethoxy)imidazo[1,2-a]quinoxalin-4(5H)-one]: the IC50 (on MAT2A; in assay [1] (setting [3]); in assay [2] (setting [4])) was > 10000 nM in each case.
As to `Cc1ccccc1-n1c(=O)c2nccn2c2ccc(C(F)F)nc21` [Example 46, 7-(difluoromethyl)-5-(o-tolyl)imidazo[1,2-a]pyrido[2,3-e]pyrazin-4(5H)-one], the IC50 was 100 to 1000 nM on MAT2A, 100 to 1000 nM in assay [1] (setting [3]) and > 10000 nM in assay [2] (setting [4]).
Regarding `Cc1ccccc1-n1c(=O)c2nccn2c2ccc(I)cc21` [Example 25, 7-Iodo-5-(o-tolyl)imidazo[1,2-a]quinoxalin-4(5H)-one], the results for the IC50 (against MAT2A; in assay [1] (setting [3]); in assay [2] (setting [4])) were 1 to 100 nM, 1 to 100 nM and 100 to 1000 nM, respectively.
For `Cc1ncccc1-n1c(=O)c2nccn2c2cc(Cl)c(C(F)(F)F)cc21` (atropisomer, axis not shown; (Sa)) [Example 98, (Sa)-8-chloro-5-(2-methylpyridin-3-yl)-7-(trifluoromethyl)imidazo[1,2-a]quinoxalin4(5H)-one], the IC50 in assay [1] (setting [5]) was 1 to 100 nM; in assay [2] (120 hours of drug treatment) it was > 10000 nM.
For `Cc1ncccc1-n1c(=O)c2nccn2c2cc(Cl)c(Br)cc21` (atropisomer, axis not shown; (Sa)) [Example 81, (Sa)-7-bromo-8-chloro-5-(2-methylpyridin-3-yl)imidazo[1,2-a]quinoxalin-4(5H)-one], in that order: 1 to 100 nM and 1000 to 10000 nM.
Consider `CCc1ncccc1-n1c(=O)c2nccn2c2cc(Cl)c(C(F)(F)F)cc21` (atropisomer, axis not shown; (Sa)) [Example 112, (Sa)-8-chloro-5-(2-ethylpyridin-3-yl)-7-(trifluoromethyl)imidazo[1,2-a]quinoxalin4(5H)-one], for which the IC50 in assay [1] (setting [5]) is > 10000 nM.
`CC(=O)c1cnc2c(=O)n(-c3cccnc3C)c3cc(C(F)(F)F)ccc3n12` [Example 59, 1-acetyl-5-(2-methylpyridin-3-yl)-7-(trifluoromethyl)imidazo[1,2-a]quinoxalin-4(5H)-one] came in with an IC50 against MAT2A of 1000 to 10000 nM.
